Assay results: US20240199676A1, “ANTIVIRAL COMPOUNDS AND METHODS OF MAKING AND USING THE SAME” (Gilead Sciences, Inc., priority 2022, published 2024)
Where two headings read alike, the source gives them in different places.

Assays:
[1] = system: Human Rhinovirus 14 (HRV14) in H1-HeLa cells; experiment: H1-HeLa HRV-CTG 384-well Assay (Ex. Y), HRV14; assay type: cell-based; details: Rhinovirus B, 96 h, read-out: EC50 H1-HeLa_HRV14_HRV-CTG 384-well Assay (per Ex Y)
From the text: Example Y: H1-HeLa HRV-CTG 384-well Assay
H1-Hela cell line (ATCC, Manassas, VA, Cat #CRL-1958) was maintained in Dulbecco's […] (DMEM) (Corning, New York, NY, Cat #15-018CM) supplemented with 10% fetal bovine serum (FBS) (Hyclone, Logan, UT, Cat #SH30071-03), and 1× Penicillin-Streptomycin-L-Glutamine (Corning, New York, NY, Cat #30-009-CI). Cells were passaged 2 times per week to maintain sub-confluent densities and were used for experiments at passage 5-30. The Human Rhinovirus 1B (HRV1B) (ATCC, Manassas, VA, Cat #VR-1645) , Human Rhinovirus 14 (HRV14) (ATCC, Manassas, VA, Cat #VR-284), and Human Rhinovirus 16 (HRV16) (ATCC, Manassas, VA, Cat #BR-283) was obtained through ATCC. Viral infection was monitored by determining viability of H1-HeLa cells as described below.
Test molecules are prepared in 100% DMSO in 384-well polypropylene plates (Greiner, Monroe, NC, Cat #784201) with 8 compounds per plate in grouped replicates of 4 at 10 serially diluted concentrations (1:3). The serially diluted compounds were transferred to low dead volume Echo plates (Labcyte, Sunnyvale, CA, Cat #LP-0200).
The test compounds were spotted to 384-well assay plates (Greiner, Monroe, NC, Cat#781091) at 200 nL per well using an Echo acoustic dispenser (Labcyte, Sunnyvale, CA). H1-HeLa cells were harvested and suspended in DMEM (supplemented with 2% FBS and 1× Penicillin-Streptomycin-L-Glutamine) and seeded to the pre-spotted assay plates at 5,000 cells per well in 30 μL. HRV1B, HRV14, and HRV16 was diluted in DMEM (supplemented with 2% FBS and 1× Penicillin-Streptomycin-L-Glutamine) at 97.1 million Infectious Units (IU) per mL, 151 million IU per mL and 221 million IU per mL respectively. 10 μL of virus per well was added to the assay plates containing cells and compounds, for an MOI of 0.5, 1.0, and 0.25 respectively. The assay plates were incubated for 4 days at 37° C. and 5% CO2. At the end of incubation, Celltiter-Glo (Promega, Madison, WI, Cat #(Ga7573) was prepared. The assay plates and Celltiter-Glo reagent were equilibrated to room temperature for at least 15 minutes. 40 μL per well of Celltiter-Glo reagent was added and the plates were incubated at room temperature for 15 minutes before reading the luminescence signal on an EnVision multimode plate reader (Perkin Elmer, Waltham, MA). Rupintrivir was used as positive control and DMSO was used as negative control. Values were normalized to the positive and negative controls (as 0% and 100% replication, respectively) and data was fitted using non-linear regression analysis by Gilead's dose response tool. The EC50 value for each compound was defined as the concentration reducing viral replication by 50%.

[2] = GI S9 stability (Ex. Z), rat intestinal S9; assay type: in vitro ADME; details: rat intestinal S9, 1.0 mg/mL protein, 2 μM substrate, pH 7.4, read-out: GIS9 Rat T½ (per Ex. Z)
Procedure, shortened: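 Pooled intestinal S9 at 1.0 mg/mL protein in PBS, pH 7.4, with substrate at 2 μM final, sampled at 0–120 min and quenched in methanol/acetonitrile containing labetalol. Remaining parent quantified by LC-MS peak area ratio. Half-life from first-order exponential decline fit.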

[3] = H1-HeLa cells, HRV14 MOI 1.0, 4 days, Celltiter-Glo

SMILES	EC50 [1, 3] [µM]	half-life at 2 μM ([2]; pooled intestinal S9 fractions) [min]	EC50 ([1]; HRV14, H1-HeLa) [µM]	half-life at 2 μM [2] [min]
CCC(C)(C)C(=O)OC[C@@]1(C#N)O[C@@H](c2ccc3c(N)ncnn23)[C@H](O)[C@@H]1O [Compound 35, ((2R,3S,4R,5S)-5-(4-aminopyrrolo[2,1-f][1,2,4]triazin-7-yl)-2-cyano-3,4-dihydroxytetrahydrofuran-2-yl)methyl 2,2-dimethylbutanoate]	24.6	124		
CC(C)(C)CCC(=O)OC[C@@]1(C#N)O[C@@H](c2ccc3c(N)ncnn23)[C@H](O)[C@@H]1O [Compound 36, ((2R,3S,4R,5S)-5-(4-aminopyrrolo[2,1-f][1,2,4]triazin-7-yl)-2-cyano-3,4-dihydroxytetrahydrofuran-2-yl)methyl 4,4-dimethylpentanoate]	6.51	3		
N#C[C@]1(COC(=O)Cc2ccccc2)O[C@@H](c2ccc3c(N)ncnn23)[C@H](O)[C@@H]1O [Compound 38, ((2R,3S,4R,5S)-5-(4-aminopyrrolo[2,1-f][1,2,4]triazin-7-yl)-2-cyano-3,4-dihydroxytetrahydrofuran-2-yl)methyl 2-phenylacetate]			6.25	12
